Molecules are shown by their SMILES.

The term IC50 denotes the concentration needed to halve the response being measured.

One data set addresses PDGFRα (Homo sapiens (Human), UniProt P16234). Kind of data set: PDGFRα kinase enzyme assay (Promega PDGFRα Kinase Enzyme System, ADP-Glo). In kind it is biochemical. The note with it: 11-point dose response, 10,000 nM to 0.169 nM; 150 uM ATP; BLQ = below limit of quantitation; read-out: IC50 Values on PDGFRα Kinase Inhibition, IC50. The method in brief:
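Purified PDGFRα protein (20 ng) reacted with test compound per the Promega kinase system protocol. ADP formed was measured by ADP-Glo luminescence against a standard curve, giving IC50.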

In data set [1] the test system is Oligodendrocyte progenitor cells (OPCs). The data set can be described thus: In vitro OPC differentiation assay, GPR17 expression (immunocytochemistry). Conditions: 3 μM (10× concentration, final 0.3 μM); 72 hours; fold change over vehicle.

Chain of PDGFRα (P16234 24-1089): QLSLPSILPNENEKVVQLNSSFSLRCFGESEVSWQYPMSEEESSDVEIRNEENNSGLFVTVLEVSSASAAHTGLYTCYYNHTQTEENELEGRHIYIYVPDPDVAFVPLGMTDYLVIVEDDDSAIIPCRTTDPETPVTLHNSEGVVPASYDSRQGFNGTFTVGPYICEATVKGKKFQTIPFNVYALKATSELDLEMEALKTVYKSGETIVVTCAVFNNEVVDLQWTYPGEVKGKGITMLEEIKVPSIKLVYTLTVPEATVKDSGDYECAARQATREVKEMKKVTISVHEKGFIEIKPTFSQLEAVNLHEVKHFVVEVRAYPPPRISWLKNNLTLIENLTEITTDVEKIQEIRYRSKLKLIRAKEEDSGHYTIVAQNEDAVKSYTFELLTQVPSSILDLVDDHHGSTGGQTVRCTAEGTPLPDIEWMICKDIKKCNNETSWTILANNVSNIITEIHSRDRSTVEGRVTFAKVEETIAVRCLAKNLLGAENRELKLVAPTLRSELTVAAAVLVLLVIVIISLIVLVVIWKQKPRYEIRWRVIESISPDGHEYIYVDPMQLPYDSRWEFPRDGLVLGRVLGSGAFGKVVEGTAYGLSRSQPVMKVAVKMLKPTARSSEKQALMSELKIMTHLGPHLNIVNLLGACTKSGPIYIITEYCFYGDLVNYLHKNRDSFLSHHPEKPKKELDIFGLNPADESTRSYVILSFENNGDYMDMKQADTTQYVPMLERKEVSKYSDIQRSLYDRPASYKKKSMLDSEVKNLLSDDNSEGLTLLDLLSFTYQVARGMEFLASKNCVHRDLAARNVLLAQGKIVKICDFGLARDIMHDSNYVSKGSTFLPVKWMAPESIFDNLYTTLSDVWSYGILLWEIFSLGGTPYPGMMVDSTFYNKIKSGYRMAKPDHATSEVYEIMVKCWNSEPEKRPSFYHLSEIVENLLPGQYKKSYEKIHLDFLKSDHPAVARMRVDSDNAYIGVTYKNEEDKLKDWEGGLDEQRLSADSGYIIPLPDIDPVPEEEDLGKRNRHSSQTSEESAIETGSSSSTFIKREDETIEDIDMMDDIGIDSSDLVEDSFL

As for `CN1CCC(c2ccc3c(N4CCN(C(=O)OC(C)(C)C)CC4)cnn3c2)CC1` [Compound 225, tert-butyl 4-(6-(1-methylpiperidin-4-yl)pyrazolo[1,5-a]pyridin-3-yl)piperazine-1-carboxylate], the IC50 on PDGFRα is > 10 µM. The “GPR17 Fold Induction (Over Vehicle; 3 μM)” value (from here on “GPR17 Fold Induction”) in data set [1] stood at 1.55.

With `Cn1cc(-c2ccc3c(N4CCN(C(=O)O[C@@H]5CCc6cc(Cl)ccc65)CC4)cnn3c2)cn1` [Compound 314, (1R)-5-chloro-2,3-dihydro-1H-inden-1-yl 4-[6-(1-methyl-1H-pyrazol-4-yl)pyrazolo[1,5-a]pyridin-3-yl]piperazine-1-carboxylate], on PDGFRα, the IC50 was 7.55 µM. Besides, the “GPR17 Fold Induction” value in data set [1] was found to be 1.64.

Consider `CN1CCC(OC(=O)N2CCN(c3cnn4cc(-c5cnn(C)c5)ccc34)CC2)CC1` [Compound 19, 1-methylpiperidin-4-yl 4-[6-(1-methyl-1H-pyrazol-4-yl)pyrazolo[1,5-a]pyridin-3-yl]piperazine-1-carboxylate], for which the half-maximal inhibitory concentration (IC50) on PDGFRα is > 10 µM. Also, in data set [1], the “GPR17 Fold Induction” value is on record as 0.83.

Regarding `Cn1cc(-c2ccc3c(C4CCC(C(=O)OCc5ccccc5)C4)cnn3c2)cn1` (centres unmarked) [Compound 137], the IC50 at PDGFRα worked out at 5.05 µM. For the same compound, in data set [1], the “GPR17 Fold Induction” value turned out to be 0.99.

Turning to `Cn1cc(-c2ccc3c(N4CCN(c5ncc(CC(O)c6ccccc6)cn5)CC4)cnn3c2)cn1` (centres unmarked) [Compound 164, 2-(2-(4-(6-(1-methyl-1H-pyrazol-4-yl)pyrazolo[1,5-a]pyridin-3-yl)piperazin-1-yl)pyrimidin-5-yl)-1-phenylethan-1-ol], the IC50 on PDGFRα worked out at 0.784 µM. In data set [1], the “GPR17 Fold Induction” value came out at 5.94.

For `CC(C)(C)OC(=O)N1CCN(c2cnn3cc(-c4ccccc4)ccc23)CC1` [Compound 206, tert-butyl 4-(6-phenylpyrazolo[1,5-a]pyridin-3-yl)piperazine-1-carboxylate], the IC50 on PDGFRα was found to be 5.34 µM. Also, in data set [1], the “GPR17 Fold Induction” value was 3.32.

Take `COCCn1cc(-c2ccn3c(N4CCN(C(=O)OC(C)(C)C)CC4)cnc3n2)cn1` [Compound 101, tert-butyl 4-(7-(1-(2-methoxyethyl)-1H-pyrazol-4-yl)imidazo[1,2-a]pyrimidin-3-yl)piperazine-1-carboxylate]: the IC50 on PDGFRα is 3.42 µM. In data set [1], the “GPR17 Fold Induction” value is given as 0.67.

Consider `Cn1cc(-c2ccc3c(C4=CCC(CCc5ccccc5)CC4)cnn3c2)cn1` (centres unmarked) [Compound 242, 6-(1-methyl-1H-pyrazol-4-yl)-3-(4-phenethylcyclohex-1-en-1-yl)pyrazolo[1,5-a]pyridine], for which the IC50 on PDGFRα was > 10 µM. In addition, in data set [1], the “GPR17 Fold Induction” value stood at 2.24.

Consider `Cn1cc(-c2ccc3c(N4CCN(c5ncc(Cc6nccs6)cn5)CC4)cnn3c2)cn1` [Compound 182, 2-((2-(4-(6-(1-methyl-1H-pyrazol-4-yl)pyrazolo[1,5-a]pyridin-3-yl)piperazin-1-yl)pyrimidin-5-yl)methyl) thiazole], for which the IC50 at PDGFRα was 6.99 µM. Moreover, in data set [1], the “GPR17 Fold Induction” value was found to be 13.16.

In the case of `Cn1cc(-c2ccc3c(N4CCN(c5ncc(C(N)c6ccc(F)cc6)cn5)CC4)cnn3c2)cn1` (centres unmarked) [Compound 246, 1-(4-fluorophenyl)-1-(2-{4-[6-(1-methyl-1H-pyrazol-4-yl)pyrazolo[1,5-a]pyridin-3-yl]piperazin-1-yl}pyrimidin-5-yl)methanamine], at PDGFRα, the IC50 came to 0.937 µM. For the same compound, in data set [1], the “GPR17 Fold Induction” value is listed as 3.04.

Turning to `Cn1cc(-c2ccc3c(N4CCN(C(=O)OCc5ncc(Cl)s5)CC4)cnn3c2)cn1` [Compound 195, (5-chlorothiazol-2-yl)methyl 4-(6-(1-methyl-1H-pyrazol-4-yl)pyrazolo[1,5-a]pyridin-3-yl)piperazine-1-carboxylate], on PDGFRα, the IC50 turned out to be 1.23 µM. For the same compound, the “GPR17 Fold Induction” value in data set [1] amounted to 5.57.

For `CC(O)C(O)c1cnc(N2CCN(c3cnn4cc(-c5cnn(C)c5)ccc34)CC2)nc1` (centres unmarked) [Compound 286, 1-(2-(4-(6-(1-methyl-1H-pyrazol-4-yl)pyrazolo[1,5-a]pyridin-3-yl)piperazin-1-yl)pyrimidin-5-yl)propane-1,2-diol], the IC50 at PDGFRα came out at 1.79 µM. In addition, the “GPR17 Fold Induction” value in data set [1] was 4.95.

As for `Cn1cc(-c2cnn3c(N4CCN(C(=O)NCc5ccc(C(F)(F)F)cc5)CC4)cnc3c2)cn1` [Compound 295, 4-(7-(1-methyl-1H-pyrazol-4-yl)imidazo[1,2-b]pyridazin-3-yl)-N-(4-(trifluoromethyl)benzyl)piperazine-1-carboxamide], the IC50 at PDGFRα stood at 0.0317 µM. Besides, in data set [1], the “GPR17 Fold Induction” value is 8.65.

With `CN(Cc1ccccc1)C(=O)C1CCC(c2cnn3cc(-c4cnn(C)c4)ccc23)CC1` (centres unmarked) [Compound 139, N-benzyl-N-methyl-4-(6-(1-methyl-1H-pyrazol-4-yl)pyrazolo[1,5-a]pyridin-3-yl)cyclohexane-1-carboxamide], the IC50 at PDGFRα worked out at 8.81 µM. For the same compound, the “GPR17 Fold Induction” value in data set [1] is listed as 3.87.

`CN1CCC(c2ccc3c(N4CCN(C(=O)OC(C)(C)C)CC4)cnn3c2)C1` (centres unmarked) [Compound 223, tert-butyl 4-(6-(1-methylpyrrolidin-3-yl)pyrazolo[1,5-a]pyridin-3-yl)piperazine-1-carboxylate]: the IC50 at PDGFRα came to 9.25 µM. For the same compound, the “GPR17 Fold Induction” value in data set [1] is on record as 1.13.

As for `CC(C)(C)OC(=O)N1CCN(c2cnc3nc(C4CCOC4)ccn23)CC1` (centres unmarked) [Compound 103, tert-butyl 4-(7-(tetrahydrofuran-3-yl)imidazo[1,2-a]pyrimidin-3-yl)piperazine-1-carboxylate], the IC50 on PDGFRα was > 10 µM. Also, in data set [1], the “GPR17 Fold Induction” value is 0.65.

With `[2H]c1c([2H])c([2H])c(C([2H])([2H])c2cnc(N3CCN(c4cnn5cc(-c6cnn(C)c6)ccc45)CC3)nc2)c([2H])c1[2H]` [Compound 82], on PDGFRα, the IC50 worked out at 2.51 µM. In addition, the “GPR17 Fold Induction” value in data set [1] was 6.50.

Consider `Cn1cc(-c2ccc3c(N4CCN(S(=O)(=O)NCc5ccc(C(F)(F)F)cc5)CC4)cnn3c2)cn1` [Compound 294, 4-(6-(1-methyl-1H-pyrazol-4-yl)pyrazolo[1,5-a]pyridin-3-yl)-N-(4-(trifluoromethyl)benzyl)piperazine-1-sulfonamide], for which, on PDGFRα, the IC50 was found to be 0.00596 µM. The “GPR17 Fold Induction” value in data set [1] came to 9.58.

Regarding `Cn1cc(-c2ccn3c(N4CCN(C(=O)NCc5ccc(C(F)(F)F)cc5)CC4)cnc3n2)cn1` [Compound 119, 4-(7-(1-methyl-1H-pyrazol-4-yl)imidazo[1,2-a]pyrimidin-3-yl)-N-(4-(trifluoromethyl)benzyl)piperazine-1-carboxamide], the IC50 on PDGFRα is 1.71 µM. Also, the “GPR17 Fold Induction” value in data set [1] stood at 8.04.

For `CC(C)(C)OC(=O)N1CCN(c2cnc3nc(-c4cccnc4)ccn23)CC1` [Compound 102, tert-butyl 4-(7-(pyridin-3-yl)imidazo[1,2-a]pyrimidin-3-yl)piperazine-1-carboxylate], the IC50 at PDGFRα worked out at 6.98 µM. The “GPR17 Fold Induction” value in data set [1] turned out to be 0.58.

For `CN(Cc1ccccc1)C(=O)C1CC=C(c2cnn3cc(-c4cnn(C)c4)ccc23)C1` (centres unmarked) [Compound 135, N-benzyl-N-methyl-3-(6-(1-methyl-1H-pyrazol-4-yl)pyrazolo[1,5-a]pyridin-3-yl)cyclopent-3-ene-1-carboxamide], at PDGFRα, the IC50 came to 3.63 µM. Further, the “GPR17 Fold Induction” value in data set [1] is 7.38.

As for `CC(C)N(C)C(=O)N1CCN(c2cnn3cc(-c4cnn(C)c4)ccc23)CC1` [Compound 252, N-isopropyl-N-methyl-4-[6-(1-methyl-1H-pyrazol-4-yl)pyrazolo[1,5-a]pyridin-3-yl]piperazine-1-carboxamide], the IC50 at PDGFRα worked out at 0.674 µM. In data set [1], the “GPR17 Fold Induction” value is reported as 1.79.

`Cn1cc(-c2ccc3c(N4CCN(C(=O)OC5CC(F)(F)C5)CC4)cnn3c2)cn1` [Compound 307, 3,3-difluorocyclobutyl 4-[6-(1-methyl-1H-pyrazol-4-yl)pyrazolo[1,5-a]pyridin-3-yl]piperazine-1-carboxylate]: the IC50 on PDGFRα was found to be 2.15 µM. In addition, the “GPR17 Fold Induction” value in data set [1] is given as 4.20.

On to `CC(C)(C)OC(=O)N1CCN(c2cnn3cc(-c4ccccc4F)ccc23)CC1` [Compound 209, tert-butyl-4-(6-(2-fluorophenyl)pyrazolo[1,5-a]pyridin-3-yl)piperazine-1-carboxylate], for which the IC50 on PDGFRα is > 10 µM. The “GPR17 Fold Induction” value in data set [1] is reported as 2.02.

In the case of `COCCn1cc(-c2ccn3c(N(C)CCN(C)C(=O)OC(C)(C)C)cnc3n2)cn1` [Compound 109, tert-butyl (2-((7-(1-(2-methoxyethyl)-1H-pyrazol-4-yl)imidazo[1,2-a]pyrimidin-3-yl)(methyl)amino)ethyl)(methyl)carbamate], the IC50 on PDGFRα is > 10 µM. For the same compound, the “GPR17 Fold Induction” value in data set [1] is 1.38.

Regarding `Cn1cc(-c2ccc3c(C(O)CCc4ncc(Cc5ccccc5)cn4)cnn3c2)cn1` (centres unmarked) [Compound 299, 3-(5-benzylpyrimidin-2-yl)-1-(6-(1-methyl-1H-pyrazol-4-yl)pyrazolo[1,5-a]pyridin-3-yl)propan-1-ol], the IC50 on PDGFRα was > 10 µM. In addition, the “GPR17 Fold Induction” value in data set [1] worked out at 1.43.

With `Cn1cc(-c2ccc3c(C4CCC(COc5ccccc5)CC4)cnn3c2)cn1` (centres unmarked) [Compound 138, 6-(1-methyl-1H-pyrazol-4-yl)-3-(4-(phenoxymethyl)cyclohexyl)pyrazolo[1,5-a]pyridine], the IC50 at PDGFRα amounted to 9.01 µM. The “GPR17 Fold Induction” value in data set [1] amounted to 0.98.

Take `Cn1cc(-c2ccc3c(N4CCN(c5ncc(Cc6cscn6)cn5)CC4)cnn3c2)cn1` [Compound 172, 4-((2-(4-(6-(1-methyl-1H-pyrazol-4-yl)pyrazolo[1,5-a]pyridin-3-yl)piperazin-1-yl)pyrimidin-5-yl)methyl)thiazole]: the IC50 at PDGFRα worked out at 0.71 µM. Moreover, the “GPR17 Fold Induction” value in data set [1] is 4.90.

Source of the values: US20250129067A1 (Progentos Therapeutics, Inc., priority 2021, published 2025).
